Patent publication US20220274947A1, “NOVEL HETEROARYL-TRIAZOLE COMPOUNDS AS PESTICIDES” (Bayer Aktiengesellschaft, priority 2019, published 2022)

Legend:
Format in all cases: in vivo
Spodoptera frugiperda = Spodoptera frugiperda spray test; details: in Zea mays, 168 h, read-out: activity (mortality)
Summary of the method: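 Maize leaf sections were sprayed with compound formulated in acetone/DMF and diluted in water containing 1000 ppm emulsifier. Dried leaves were infested with fall armyworm larvae, and percent mortality was scored after 7 days.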

Ctenocephalides felis [1] = test: Ctenocephalides felis in-vitro contact test, adult cat flea (CTECFE Cont); details: application rate 5 μg/cm^2 (=500 g/ha), adult cat fleas, after 48 hours, read-out: activity (efficacy: 100% means all fleas are dead or moribund)
Summary of the method: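 Acetone solutions coated on glass tube inner walls (900 ppm giving 5 μg/cm^2), then 5-10 adult fleas added and held 48 h at room temperature. Fleas unable to escape a 45-50° C. heating plate within 5 min scored dead or moribund; efficacy = % dead/moribund.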

Myzus persicae [2] = test: Myzus persicae oral test; details: 120 h, read-out: activity (mortality)
Summary of the method: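 Percent mortality was recorded at day 5, where 0% means no aphids killed. Compound prepared from an acetone concentrate diluted in water and combined with IPL41 medium containing sugar was offered to mixed-stage green peach aphids, which sucked it through a parafilm seal.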

Rhipicephalus sanguineus = Rhipicephalus sanguineus in-vitro contact test, adult brown dog ticks (RHIPSA Cont); details: 48 h, after 48 hours, read-out: activity (efficacy: 100% means all ticks are dead or moribund); for pest or weed control at 5 µg/cm2, 500 g/ha: application rate 5 μg/cm^2 (=500 g/ha); for pest or weed control at 1 µg/cm2, 100 g/ha: application rate 1 μg/cm^2 (=100 g/ha)
Summary of the method: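 Compound in acetone (9 mg/mL stock, diluted to test concentration) is coated onto inner walls of glass tubes by rotation for 2 h at 30 rpm. Efficacy is read after 48 h: ticks are tapped down and held on a 45-50° C plate for at most 5 min, and immotile or uncoordinated ones that fail to climb away count as dead or moribund.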

Myzus persicae [3] = test: Myzus persicae spray test; details: in Brassica rapa, foliar, 120 h; for mortality at 100 g/ha: read-out: activity (mortality), application rate 100 g/ha, spray, Chinese cabbage leaf disks, after 5 days; for mortality at 500 g/ha: read-out: activity (mortality), application rate 500 g/ha, spray, Chinese cabbage leaf disks, after 5 days
Method: Myzus persicae—Spray Test Solvent: 78.0 parts by weight acetone • 1.5 parts by weight dimethylformamide Emulsifier: alkylarylpolyglycol ether To produce a suitable preparation of active compound, 1 part by weight of active compound is mixed with the stated amount of solvents and is diluted with water, containing an emulsifier concentration of 1000 ppm, to the desired concentration. Further test concentrations are prepared by dilution with emulsifier containing water.
Chinese cabbage (Brassica pekinensis) leaf disks infected with all instars of the green peach aphid (Myzus persicae), are sprayed with a preparation of the active ingredient of the desired concentration.
After 5 days mortality in % is determined. 100% means all aphids have been killed and 0% means none of the aphids have been killed.

Diabrotica balteata = Diabrotica balteata spray test; details: 168 h, wheat seeds, larvae, after 7 days, read-out: activity (efficacy: 100% means all seedlings have grown up like in the untreated, uninfected control); for pest or weed control at 32 µg/disc, 100 g/ha: application rate 100 g/ha (=32 μg/well); for pest or weed control at 160 µg/disc, 500 g/ha: application rate 500 g/ha (=160 μg/well)
Summary of the method: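 Wheat seedlings, germinated 1 day on agar, were sprayed with compound in acetone/DMF diluted in water containing emulsifier, then infested with 10-20 Diabrotica balteata larvae. After 7 days efficacy in % was scored: 100% means seedlings grew like the untreated, uninfected control; 0% means none grew.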

Rhipicephalus microplus [4] = test: Rhipicephalus (Boophilus) microplus in-vitro contact test, larval cattle tick, strain Parkhurst (BOOPMI Cont); details: application rate 5 μg/cm^2 (=500 g/ha), tick larvae, after 48 hours, read-out: activity (efficacy: 100% means all larvae are dead or moribund)
Summary of the method: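 Acetone solutions dried onto glass tube walls (900 ppm giving 5 μg/cm^2); 20-50 pyrethroid-resistant Parkhurst larvae added per tube and held 48 h at 27° C., 85% relative humidity. Efficacy scored by negative geotaxis as % dead or moribund larvae.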

Nezara viridula = Nezara viridula spray test; details: in Hordeum vulgare, 96 h, barley plants, larvae, after 4 days; for mortality at 100 g/ha: application rate 100 g/ha; for mortality at 500 g/ha: application rate 500 g/ha
Method: Nezara viridula—Spray Test Solvent: 78.0 parts by weight of acetone • • 1.5 parts by weight of dimethylformamide Emulsifier: alkylarylpolyglycol ether
To produce a suitable preparation of active compound, 1 part by weight of active compound is mixed with the stated amount of solvent, and the concentrate is diluted with water, containing an emulsifier concentration of 1000 ppm, to the desired concentration. Further test concentrations are prepared by dilution with emulsifier containing water.
Barley plants (Hordeum vulgare) infested with larvae of the southern green stink bug (Nezara viridula) are sprayed with a test solution containing the desired concentration of the active ingredient.
After 4 days mortality in % is determined. 100% means all the stink bugs have been killed; 0% means none of the stink bugs have been killed.

Rhipicephalus microplus [5] = test: Rhipicephalus (Boophilus) microplus injection test (BOOPMI Inj); details: 168 h, injection into adult engorged female ticks, egg deposition after 7 days, read-out: activity (efficacy: 100% means all eggs are infertile); for pest or weed control at 0.004 mg: application rate 4 μg/tick; for pest or weed control at 0.02 mg: application rate 20 μg/tick
Summary of the method: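 Five engorged adult female R. microplus ticks injected into the abdomen with 1 μL of compound diluted in DMSO, then kept in a climate chamber. Fertile egg deposition checked after 7 days; eggs without visible fertility held until hatching at about 42 days. Efficacy: 100% = all eggs infertile, 0% = all fertile.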

[6] = tested on: Aedes aegypti strain MONHEIM; test: Aedes aegypti test (AEDSAE surface treatment & contact assay); details: surface concentration 20 mg/m^2, glazed tile, exposure 30 minutes, 24 hours after contact, read-out: efficacy (mortality)
Summary of the method: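 Compound dissolved in acetone (2 mg/ml) with 2000 ppm rapeseed oil methyl ester, pipetted onto glazed tile and dried. Adult mosquitoes exposed on the surface for 30 min; percent mortality scored 24 h after contact.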

[7] = tested on: Musca domestica strain WHO—N; test: Musca domestica test (MUSCDO surface treatment & contact assay); details: exposure 30 minutes, 24 hours after contact, read-out: efficacy (mortality)
Summary of the method: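 Compound dissolved in acetone (2 mg/ml) with 2000 ppm rapeseed oil methyl ester and pipetted onto glazed tile; after acetone evaporation, adult flies exposed to dried surface for 30 minutes. Mortality (%) scored 24 hours after contact.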

Ctenocephalides felis [8] = test: Ctenocephalides felis oral test (CTECFE Oral); details: 48 h, read-out: activity (mortality)
Summary of the method: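 About 20 unfed adult cat fleas fed through parafilm on cattle blood containing compound (DMSO concentrate diluted in blood to the desired concentration). Blood held at 37 °C, fleas at room temperature. Mortality (%) scored after 2 days.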

Row | Compound | mortality at 100 g/ha (Spodoptera frugiperda) | pest or weed control at 5 µg/cm2 (Ctenocephalides felis [1]) | mortality at 0.8 ppm (Myzus persicae [2]) | mortality at 4 ppm (Myzus persicae [2]) | pest or weed control at 5 µg/cm2, 500 g/ha (Rhipicephalus sanguineus) | mortality at 100 g/ha (Myzus persicae [3]) | pest or weed control at 32 µg/disc, 100 g/ha (Diabrotica balteata) | pest or weed control at 5 µg/cm2 (Rhipicephalus microplus [4]) | mortality at 100 g/ha (Nezara viridula) | mortality at 500 g/ha (Nezara viridula) | mortality at 500 g/ha (Spodoptera frugiperda) | pest or weed control at 0.004 mg (Rhipicephalus microplus [5]) | pest or weed control at 0.02 mg (Rhipicephalus microplus [5]) | mortality at 20 mg/m2 [6] | pest or weed control at 1 µg/cm2, 100 g/ha (Rhipicephalus sanguineus) | mortality at 4 mg/m2 ([7]; surface concentration 4 mg/m^2, glazed tile) | mortality at 20 mg/m2 ([7]; surface concentration 20 mg/m^2, glazed tile) | mortality at 500 g/ha (Myzus persicae [3]) | pest or weed control at 160 µg/disc, 500 g/ha (Diabrotica balteata) | mortality at 100 ppm (Ctenocephalides felis [8])
1 | COc1nc([C@H](C)NC(=O)c2cc(OC(F)F)cc(OC(F)F)c2)n(-c2ccc(C#N)cn2)n1 [I-64] | 100% | 90% | 100% | 100% | 80% | 90% | 100% | 100% | 90% | 100% | – | – | – | – | – | – | – | – | – | –
2 | C[C@H](NC(=O)c1cc(C(F)(F)F)cc(C(F)(F)F)c1)c1ncnn1-c1ncc(I)s1 [II-39] | 100% | – | – | – | 100% | – | 100% | 100% | – | 90% | 100% | 100% | 100% | 80 to 100% | 100% | 80 to 100% | 80 to 100% | 100% | 100% | –
3 | CC(C)CN(C)C(=O)c1ccc(-n2ncnc2[C@H](C)NC(=O)c2cc(Cl)cc(C(F)(F)F)c2)nc1 [II-71] | – | 100% | – | 90% | 100% | 90% | 100% | 100% | – | 100% | 100% | 100% | 100% | – | – | – | – | 90% | 100% | –
4 | Cc1nc([C@H](C)NC(=O)c2cc(C(F)(F)F)cc(C(F)(F)F)c2)n(-c2ccc(C(=O)N(C)CC3CC3)cn2)n1 [II-91] | 100% | 100% | 100% | 100% | 100% | 100% | 100% | 100% | 100% | – | – | 100% | – | – | 100% | – | – | – | – | 100%
5 | Cc1nc([C@H](C)NC(=O)c2cc(C(F)(F)F)cc(C(F)(F)F)c2)n(-c2ccc(C(=O)N(C)C(C)C)cn2)n1 [II-92] | 100% | 100% | – | 100% | 100% | 90% | – | 100% | 90% | – | – | 100% | – | – | 100% | – | – | – | – | –
6 | Cc1nc([C@H](C)NC(=O)c2cc(C(F)(F)F)cc(C(F)(F)F)c2)n(-c2ccc(C(=O)N(C)CC(F)(F)F)cn2)n1 [II-93] | 100% | 90% | – | 100% | 100% | 90% | 100% | 100% | 100% | – | – | 100% | – | – | 100% | – | – | – | – | 90%
7 | Cc1nc([C@H](C)NC(=O)c2cc(C(F)(F)F)cc(C(F)(F)F)c2)n(-c2ccc(C(=O)N(C)CC(C)C)cn2)n1 [II-94] | – | 100% | – | 100% | 100% | 90% | 100% | 100% | 100% | – | – | 100% | – | – | 100% | – | – | – | – | 90%
8 | Cc1nc([C@H](C)NC(=O)c2cc(C(F)(F)F)cc(C(F)(F)F)c2)n(-c2ccc(C(=O)N(C)C)cn2)n1 [II-100] | 100% | 100% | 100% | 100% | 100% | 100% | – | 100% | 100% | – | – | 100% | – | – | 100% | – | – | – | – | –
9 | CCSc1cc(C#N)cc(C(=O)N[C@@H](C)c2ncnn2-c2ccc(C#N)cn2)c1 [II-109] | – | 100% | 90% | 100% | 100% | 90% | 100% | 100% | 100% | – | – | 100% | – | – | 100% | – | – | – | – | –
10 | Cc1nc([C@H](C)NC(=O)c2cc(C(F)F)cc(C(F)F)c2)n(-c2ccc(C#N)cn2)n1 [II-114] | 83% | 100% | 100% | 100% | 100% | 90% | 100% | 100% | 100% | – | – | – | – | – | 100% | – | – | – | – | –
11 | Cc1nc([C@H](C)NC(=O)c2cc(OC(F)F)cc(OC(F)F)c2)n(-c2ccc(C#N)cn2)n1 [II-115] | 100% | 90% | 100% | 100% | 100% | 90% | 100% | 100% | 100% | – | – | – | – | – | – | – | – | – | – | –
